Publication PMC7587356, “High-Throughput Screening for Inhibitors of the SARS-CoV-2 Protease Using a FRET-Biosensor” (Molecules, 2020)
Read-outs that look alike come from different tables or passages of the source.

Key:
SARS-CoV-2 3CLpro [1] = target: T1, SARS-CoV-2 3CLpro (Severe acute respiratory syndrome coronavirus 2, UniProt P0DTD1); test: biochemical; assay type: biochemical; settings: for inhibition at 5 µM: 4 h
SARS-CoV-2 3CLpro [2] = target: T1, SARS-CoV-2 3CLpro; test: biochemical; assay type: biochemical
[3] = sheet LOPAC_screen_w_protease, primary screen at 5 µM, mean of two replicates, read-out: mean (LOPAC screen with protease)
[4] = sheet LOPAC_screen_w_protease, primary screen at 5 µM, replicate 1, read-out: Replicate_1 (LOPAC screen with protease)
[5] = sheet LOPAC_screen_w_protease, primary screen at 5 µM, replicate 2, read-out: Replicate_2 (LOPAC screen with protease)
[6] = with 0.01% Triton X-100; mean ± SD of triplicate; 4 h, 30 °C; read-out: A) EC50 with Triton X-100
[7] = without Triton X-100; mean ± SD of triplicate; 4 h, 30 °C; read-out: B) EC50 without Triton X-100
[8] = read-out: Replicate_1 (LOPAC screen with protease)
[9] = read-out: Replicate_2 (LOPAC screen with protease)
[10] = read-out: mean (LOPAC screen with protease)
[11] = sheet LOPAC_screen_w_protease, primary screen at 5 µM, mean of two replicates
[12] = sheet LOPAC_screen_w_protease, primary screen at 5 µM, replicate 1
[13] = sheet LOPAC_screen_w_protease, primary screen at 5 µM, replicate 2

## Oc1cc(O)cc(/C=C/c2ccc(O)c(O)c2)c1 [Piceatannol, reference compound]
SARS-CoV-2 3CLpro [1]; [3]
  inhibition at 5 µM: 92.3%
SARS-CoV-2 3CLpro [1]; [4]
  inhibition at 5 µM: 93.6%
SARS-CoV-2 3CLpro [1]; [5]
  inhibition at 5 µM: 91.1%
SARS-CoV-2 3CLpro [2]
  Ratio (A/B): 1.3
SARS-CoV-2 3CLpro [2]; [6]
  EC50: 569 ± 75 nM
SARS-CoV-2 3CLpro [2]; [7]
  EC50: 455 ± 113 nM

## Oc1cc2c(cc1O)CN(C(=S)NCCc1ccc(Cl)cc1)CCC2 [Capsazepine, reference compound]
SARS-CoV-2 3CLpro [1]; [8]
  inhibition at 5 µM: 91.9%
SARS-CoV-2 3CLpro [1]; [9]
  inhibition at 5 µM: 90.5%
SARS-CoV-2 3CLpro [1]; [10]
  inhibition at 5 µM: 91.2%
SARS-CoV-2 3CLpro [2]
  Ratio (A/B): 1.4
SARS-CoV-2 3CLpro [2]; A) EC50 with Triton X-100
  EC50: 944 ± 98 nM
SARS-CoV-2 3CLpro [2]; B) EC50 without Triton X-100
  EC50: 668 ± 330 nM

## N#C/C(=C\c1ccc(O)c(O)c1)C(N)=S [Tyrphostin 47, reference compound]
SARS-CoV-2 3CLpro [1]; [3]
  inhibition at 5 µM: 28.2%
SARS-CoV-2 3CLpro [1]; [4]
  inhibition at 5 µM: 30.5%
SARS-CoV-2 3CLpro [1]; [5]
  inhibition at 5 µM: 25.9%
SARS-CoV-2 3CLpro [2]; [6]
  EC50: > 20000 nM
SARS-CoV-2 3CLpro [2]; [7]
  EC50: 15800 ± 10100 nM

## Cc1c(OCC(F)(F)F)ccnc1C[S+]([O-])c1nc2ccccc2[nH]1 (centres unmarked) [Lansoprazole, reference compound]
SARS-CoV-2 3CLpro [1]; [11]
  mean (LOPAC screen with protease): 41.5106
SARS-CoV-2 3CLpro [1]; [12]
  Replicate_1 (LOPAC screen with protease): 48.0924
SARS-CoV-2 3CLpro [1]; [13]
  Replicate_2 (LOPAC screen with protease): 34.9288
SARS-CoV-2 3CLpro [2]
  Ratio (A/B): 3.9
SARS-CoV-2 3CLpro [2]; A) EC50 with Triton X-100
  EC50: 5720 ± 865 nM
SARS-CoV-2 3CLpro [2]; B) EC50 without Triton X-100
  EC50: 1460 ± 398 nM

## O=c1oc(Cl)c(Cl)c2ccccc12 [3,4-Dichloroisocoumarin, reference compound]
SARS-CoV-2 3CLpro [1]; [3]
  inhibition at 5 µM: 30.4%
SARS-CoV-2 3CLpro [1]; [4]
  inhibition at 5 µM: 30.8%
SARS-CoV-2 3CLpro [1]; [5]
  inhibition at 5 µM: 30%
SARS-CoV-2 3CLpro [2]
  Ratio (A/B): 1.6
SARS-CoV-2 3CLpro [2]; [6]
  EC50: 8700 ± 2720 nM
SARS-CoV-2 3CLpro [2]; [7]
  EC50: 5380 ± 612 nM

## O=C(O)c1cc[c]([Hg][Cl])cc1 [4-Chloromercuribenzoic acid, reference compound]
SARS-CoV-2 3CLpro [1]; [11]
  mean (LOPAC screen with protease): 103.38
SARS-CoV-2 3CLpro [1]; [12]
  Replicate_1 (LOPAC screen with protease): 104.085
SARS-CoV-2 3CLpro [1]; [13]
  Replicate_2 (LOPAC screen with protease): 102.675
SARS-CoV-2 3CLpro [2]
  Ratio (A/B): 0.9
SARS-CoV-2 3CLpro [2]; with 0.01% Triton X-100, read-out: EC50
  EC50: 85 nM
SARS-CoV-2 3CLpro [2]; [7]
  EC50: 95 ± 7 nM

## O=C1O/C(=C/Br)CCC1c1cccc2ccccc12 (centres unmarked) [Bromoenol lactone, reference compound]
SARS-CoV-2 3CLpro [1]; [8]
  inhibition at 5 µM: 100%
SARS-CoV-2 3CLpro [1]; [9]
  inhibition at 5 µM: 99.7%
SARS-CoV-2 3CLpro [1]; [10]
  inhibition at 5 µM: 99.9%
SARS-CoV-2 3CLpro [2]
  Ratio (A/B): 1.1
SARS-CoV-2 3CLpro [2]; [6]
  EC50: 817 ± 121 nM
SARS-CoV-2 3CLpro [2]; [7]
  EC50: 757 ± 73 nM
